The record followed here is patent publication US8404708B2, “Dual NK1/NK3 receptor antagonists” (Hoffmann-La Roche Inc., priority 2004, dated 2013).

Read-outs that look alike come from different tables or passages of the source.

The target of assay [1] is T1, Recombinant human NK3 (hNK3) receptor (Homo sapiens, UniProt P29371).
T1 construct: expressed in transfected cells
T1 sequence (P29371 1-465): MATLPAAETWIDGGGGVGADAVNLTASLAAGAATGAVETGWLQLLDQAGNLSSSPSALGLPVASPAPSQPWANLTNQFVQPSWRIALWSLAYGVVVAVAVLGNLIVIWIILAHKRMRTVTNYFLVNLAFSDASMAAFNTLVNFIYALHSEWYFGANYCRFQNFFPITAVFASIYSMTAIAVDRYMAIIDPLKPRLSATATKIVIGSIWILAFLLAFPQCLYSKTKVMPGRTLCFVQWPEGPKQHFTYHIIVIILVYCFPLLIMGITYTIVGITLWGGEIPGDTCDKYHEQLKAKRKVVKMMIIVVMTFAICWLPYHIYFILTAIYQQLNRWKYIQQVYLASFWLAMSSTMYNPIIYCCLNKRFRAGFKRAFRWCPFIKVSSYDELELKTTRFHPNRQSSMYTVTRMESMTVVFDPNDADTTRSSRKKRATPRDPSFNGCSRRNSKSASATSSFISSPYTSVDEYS
Briefly: NK3 receptor binding, [3H]SR142801 displacement, membrane preparations. The gist of the method:
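Incubation ran 90 min at room temperature in 50 mM Tris-HCl pH 7.4 with 0.1% BSA, 4 mM MnCl2 and 1 μM phosphoramidon, using about 2.5 μg hNK3 membrane protein per well. Nonspecific binding was defined with 10 μM SB222200, and bound radioactivity was collected on PEI-soaked GF/C filters for scintillation counting.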

The target of another assay is human NK1 receptor (Homo sapiens, UniProt P25103). Briefly: NK1 receptor binding, [3H]substance P displacement, CHO cell membranes.
human NK1 receptor, sequence (P25103 whole entry): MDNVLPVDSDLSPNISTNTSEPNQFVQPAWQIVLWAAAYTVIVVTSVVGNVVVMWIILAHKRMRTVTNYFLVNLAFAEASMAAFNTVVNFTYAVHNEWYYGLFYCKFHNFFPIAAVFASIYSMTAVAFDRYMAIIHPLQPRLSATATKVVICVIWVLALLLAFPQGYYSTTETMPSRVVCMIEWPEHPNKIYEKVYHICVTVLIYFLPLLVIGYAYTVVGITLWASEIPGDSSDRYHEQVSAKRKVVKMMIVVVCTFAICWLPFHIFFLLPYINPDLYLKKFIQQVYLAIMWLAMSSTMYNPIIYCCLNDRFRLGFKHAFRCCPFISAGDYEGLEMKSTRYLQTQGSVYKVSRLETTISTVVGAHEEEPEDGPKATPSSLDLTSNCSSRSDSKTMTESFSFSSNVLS
The mark [2] stands for this setting: second value of the cell pKi NK1/NK3, hNK3 receptor, [3H]SR142801.
[3] abbreviates: first value of the cell pKi NK1/NK3, human NK1 receptor, [3H]substance P.
The mark [4] stands for this setting: second value of the cell NK1/NK3, read-out: pKi NK3 (converted).
Where [5] appears, read: first value of the cell NK1/NK3, read-out: pKi NK1 (converted).

For the compound `Cc1cc(F)ccc1-c1cc(N2CCC[C@H]2CO)ncc1N(C)C(=O)C(C)(C)c1cc(Cl)cc(Cl)c1` [Example 22, (S)-2-(3,5-Dichloro-phenyl)-N-[4-(4-fluoro-2-methyl-phenyl)-6-(2-hydroxymethyl-pyrrolidin-1-yl)-pyridin-3-yl]-N-methyl-isobutyramide], the values for the Ki (in assay [1] (setting [2]); at human NK1 receptor (setting [3])) were 1.17 nM and 5.13 nM, respectively.
For `CN(C(=O)C(C)(C)c1cc(C(F)(F)F)cc(C(F)(F)F)c1)c1cnc(N2CC[C@@H](O)C2)cc1-c1ccccc1Cl` [Example 47, (R)-2-(3,5-Bis-trifluoromethyl-phenyl)-N-[4-(2-chloro-phenyl)-6-(3-hydroxy-pyrrolidin-1-yl)-pyridin-3-yl]-N-methyl-isobutyramide], in that order: 6.31 nM and 1.95 nM.
With `Cc1ccccc1-c1cc(N2CC(F)(F)C[C@H]2CO)ncc1N(C)C(=O)C(C)(C)c1cc(C(F)(F)F)cc(C(F)(F)F)c1` [Example 299, (S)-2-(3,5-Bis-trifluoromethyl-phenyl)-N-[6-(4,4-difluoro-2-hydroxymethyl-pyrrolidin-1-yl)-4-o-tolyl-pyridin-3-yl]-N-methyl-isobutyramide], the Ki was 1.07 nM in assay [1] (setting [4]) and 2.57 nM on human NK1 receptor (setting [5]).
In the same order, the values of `CN(C(=O)C(C)(C)c1cc(C(F)(F)F)cc(C(F)(F)F)c1)c1cnc(N2C[C@H](O)C[C@H]2CO)cc1-c1ccccc1S(C)(=O)=O` [Example 218, (2S,4R)-2-(3,5-Bis-trifluoromethyl-phenyl)-N-[6-(4-hydroxy-2-hydroxymethyl-pyrrolidin-1-yl)-4-(2-methanesulfonyl-phenyl)-pyridin-3-yl]-N-methyl-isobutyramide] are 7.24 nM and 2.63 nM.
Turning to `Cc1ccccc1-c1cc(N2CCOC[C@H]2CO)ncc1N(C)C(=O)C(C)(C)c1cc(C(F)(F)F)cc(C(F)(F)F)c1` [Example 175], the Ki in assay [1] (setting [2]) was 2.14 nM; on human NK1 receptor (setting [3]), 1.62 nM.
On to `CN(C(=O)C(C)(C)c1cc(C(F)(F)F)cc(C(F)(F)F)c1)c1cnc(N2C[C@H](O)C[C@H]2CO)cc1-c1cccnc1Cl` [Example 232, (2S,4R)-2-(3,5-Bis-trifluoromethyl-phenyl)-N-[2-chloro-6′-(4-hydroxy-2-hydroxymethyl-pyrrolidin-1-yl)-[3,4′]bipyridinyl-3′-yl]-N-methyl-isobutyramide], for which the Ki is 1.35 nM in assay [1] (setting [4]) and 0.575 nM at human NK1 receptor (setting [5]).
For the compound `Cc1ccccc1-c1cc(N2CC[C@H](O)[C@H](O)C2)ncc1N(C)C(=O)C(C)(C)c1cc(C(F)(F)F)cc(C(F)(F)F)c1` (racemic) [Example 185, (3RS,4SR)-2-(3,5-Bis-trifluoromethyl-phenyl)-N-(3,4-dihydroxy-4′-o-tolyl-3,4,5,6-tetrahydro-2H-[1,2′]bipyridinyl-5′-yl)-N-methyl-isobutyramide], the Ki in assay [1] (setting [2]) was 32.4 nM; on human NK1 receptor (setting [3]), 1.55 nM.
In the same order, the values of `C[C@H](O)[C@H](CO)Nc1cc(-c2ccccc2Cl)c(N(C)C(=O)C(C)(C)c2cc(C(F)(F)F)cc(C(F)(F)F)c2)cn1` [Example 147, (1S,2S)-2-(3,5-Bis-trifluoromethyl-phenyl)-N-[4-(2-chloro-phenyl)-6-(2-hydroxy-1-hydroxymethyl-propylamino)-pyridin-3-yl]-N-methyl-isobutyramide] are 10.5 nM and 0.724 nM.
For `Cc1cc(F)ccc1-c1cc(N2C[C@H](O)C[C@H]2CO)ncc1N(C)C(=O)C(C)(C)c1cc(F)cc(C(F)(F)F)c1` [Example 25, (2S,4R)-N-[4-(4-Fluoro-2-methyl-phenyl)-6-(4-hydroxy-2-hydroxymethyl-pyrrolidin-1-yl)-pyridin-3-yl]-2-(3-fluoro-5-trifluoromethyl-phenyl)-N-methyl-isobutyramide], in that order: 1.74 nM and 0.933 nM.
In the same order, the values of `CN(C(=O)C(C)(C)c1cc(C(F)(F)F)cc(C(F)(F)F)c1)c1cnc(NCCO)cc1-c1ccc(F)cc1Cl` [Example 69, 2-(3,5-Bis-trifluoromethyl-phenyl)-N-[4-(2-chloro-4-fluoro-phenyl)-6-(2-hydroxy-ethylamino)-pyridin-3-yl]-N-methyl-isobutyramide] are 14.5 nM and 1.12 nM.
Consider `CN(C(=O)C(C)(C)c1cc(C(F)(F)F)cc(C(F)(F)F)c1)c1cnc(N2CCC[C@H]2CO)cc1-c1ccccc1F` [Example 282, (S)-2-(3,5-Bis-trifluoromethyl-phenyl)-N-[4-(2-fluoro-phenyl)-6-(2-hydroxymethyl-pyrrolidin-1-yl)-pyridin-3-yl]-N-methyl-isobutyramide], for which the Ki in assay [1] (setting [4]) was 2.24 nM; on human NK1 receptor (setting [5]), 3.09 nM.
Regarding `CN(C(=O)C(C)(C)c1cc(C(F)(F)F)cc(C(F)(F)F)c1)c1cnc(N2CCC(N)CC2)cc1-c1ccccc1Cl` [Example 112, N-[4-Amino-4′-(2-chloro-phenyl)-3,4,5,6-tetrahydro-2H-[1,2′]bipyridinyl-5′-yl]-2-(3,5-bis-trifluoromethyl-phenyl)-N-methyl-isobutyramide], the Ki in assay [1] (setting [2]) was 5.5 nM; at human NK1 receptor (setting [3]) it was 0.562 nM.
For `Cc1ccccc1-c1cc(N2CCOC(CO)C2)ncc1N(C)C(=O)C(C)(C)c1cc(C(F)(F)F)cc(C(F)(F)F)c1` (racemic) [Example 176, (RS)-2-(3,5-Bis-trifluoromethyl-phenyl)-N-[6-(2-hydroxymethyl-morpholin-4-yl)-4-o-tolyl-pyridin-3-yl]-N-methyl-isobutyramide], the Ki is 26.3 nM in assay [1] (setting [2]) and 2.09 nM at human NK1 receptor (setting [3]).
Regarding `CN(C(=O)C(C)(C)c1cc(C(F)(F)F)cc(C(F)(F)F)c1)c1cnc(N2CC[C@H](O)[C@H]2CO)cc1-c1cccc(Cl)c1` [Example 269, (2R,3S)-2-(3,5-Bis-trifluoromethyl-phenyl)-N-[4-(3-chloro-phenyl)-6-(3-hydroxy-2-hydroxymethyl-pyrrolidin-1-yl)-pyridin-3-yl]-N-methyl-isobutyramide], the Ki was 3.55 nM in assay [1] (setting [4]) and 1.86 nM on human NK1 receptor (setting [5]).
Turning to `CN(CCO)c1cc(-c2ccc(F)cc2)c(N(C)C(=O)C(C)(C)c2cc(C(F)(F)F)cc(C(F)(F)F)c2)cn1` [Example 115, 2-(3,5-bis-trifluoromethyl-phenyl)-N-{4-(4-fluoro-phenyl)-6-[(2-hydroxy-ethyl)-methyl-amino]-pyridin-3-yl}-N-methyl-isobutyramide], the Ki in assay [1] (setting [2]) is 30.2 nM; at human NK1 receptor (setting [3]), 1.86 nM.
For `CN(C(=O)C(C)(C)c1cc(C(F)(F)F)cc(C(F)(F)F)c1)c1cnc(N2CCC(CO)CC2)cc1-c1ccccc1Cl` [Example 52, 2-(3,5-Bis-trifluoromethyl-phenyl)-N-[4′-(2-chloro-phenyl)-4-hydroxymethyl-3,4,5,6-tetrahydro-2H-[1,2′]bipyridinyl-5′-yl]-N-methyl-isobutyramide], the results for the Ki (in assay [1] (setting [2]); on human NK1 receptor (setting [3])) were 7.94 nM and 1.1 nM, respectively.
In the case of `Cc1ccccc1-c1cc(N2C[C@H](F)C[C@H]2CO)ncc1N(C)C(=O)C(C)(C)c1cc(C(F)(F)F)cc(C(F)(F)F)c1` [Example 301, (2S,4R)-2-(3,5-Bis-trifluoromethyl-phenyl)-N-[6-(4-fluoro-2-hydroxymethyl-pyrrolidin-1-yl)-4-o-tolyl-pyridin-3-yl]-N-methyl-isobutyramide], the Ki in assay [1] (setting [4]) was 2.29 nM; at human NK1 receptor (setting [5]) it was 2.14 nM.
In the same order, the values of `Cc1cc(F)ccc1-c1cc(N2C[C@@H](O)C[C@@H]2CO)ncc1N(C)C(=O)C(C)(C)c1cc(C(F)(F)F)cc(C(F)(F)F)c1` [Example 259, (2R,4S)-2-(3,5-Bis-trifluoromethyl-phenyl)-N-[4-(4-fluoro-2-methyl-phenyl)-6-(4-hydroxy-2-hydroxymethyl-pyrrolidin-1-yl)-pyridin-3-yl]-N-methyl-isobutyramide] are 15.1 nM and 1.66 nM.
Consider `CN(C(=O)C(C)(C)c1cc(C(F)(F)F)cc(C(F)(F)F)c1)c1cnc(N[C@@H]2CCCC[C@H]2O)cc1-c1ccccc1Cl` (racemic) [Example 151, (1RS,2RS)-2-(3,5-Bis-trifluoromethyl-phenyl)-N-[4-(2-chloro-phenyl)-6-(2-hydroxy-cyclohexylamino)-pyridin-3-yl]-N-methyl-isobutyramide], for which the Ki was 27.5 nM in assay [1] (setting [2]) and 1.15 nM on human NK1 receptor (setting [3]).
Turning to `Cc1ccccc1-c1cc(N2C[C@@H](O)C[C@@H]2CO)ncc1N(C)C(=O)C(C)(C)c1cc(C(F)(F)F)cc(C(F)(F)F)c1` [Example 260, (2R,4S)-2-(3,5-Bis-trifluoromethyl-phenyl)-N-[6-(4-hydroxy-2-hydroxymethyl-pyrrolidin-1-yl)-4-o-tolyl-pyridin-3-yl]-N-methyl-isobutyramide], the values for the Ki (in assay [1] (setting [4]); on human NK1 receptor (setting [5])) were 17.8 nM and 1.41 nM, respectively.
Take `Cc1c(F)cccc1-c1cc(N(CCO)CCO)ncc1N(C)C(=O)C(C)(C)c1cc(C(F)(F)F)cc(C(F)(F)F)c1` [Example 127, N-[6-[Bis-(2-hydroxy-ethyl)-amino]-4-(3-fluoro-2-methyl-phenyl)-pyridin-3-yl]-2-(3,5-bis-trifluoromethyl-phenyl)-N-methyl-isobutyramide]: the Ki is 1.51 nM in assay [1] (setting [2]) and 2.19 nM at human NK1 receptor (setting [3]).
